The results in this text go back to patent US20230295571A1, “COMPOSITIONS AND METHODS FOR STEM CELL CHONDROGENESIS” (Washington University, priority 2020, published 2023).

Experiment [1] relates to WNT2B, WNT3A, WNT4, WNT5B, WNT7B. Kind of experiment: Western blots of WNT proteins in d28 pellets. The format is cell-based, human. As to the method:
Western blots. To examine the effect of WNT-C59 on WNT inhibition in the pellets at protein levels, Western blot analysis was performed on d28 pellets with or without WNT-C59 treatments. Six to eight pellets per experimental group were pooled and digested with 0.04% Type II collagenase solution in DMEM/F12 for 1 h. Cells were washed once with PBS and lysed in RIPA buffer (Cell Signaling Technology, #9806S) with protease inhibitor (ThermoFisher, #87786) and phosphatase inhibitor (Santa Cruz Biotechnology, #sc-45044). Protein concentration was measured using the BCA Assay (Pierce). Ten micrograms of proteins for each well were separated on 10% sodium dodecyl sulfate-polyacrylamide gel electrophoresis gels with prestained molecular weight markers (Bio-Rad, 161-0374) and transferred to a polyvinylidene fluoride (PVDF) membrane. The PVDF membrane blots were incubated overnight at 4° C. with the following primary antibodies: anti-WNT2B (1:350, Abcam, ab178418), anti-WNT3A (1:1000, Abcam, ab81614), anti-WNT4 (1:500, Abcam, ab91226), anti-WNTSB (1:500, Abcam, ab93134), anti-WNT7B (1:2000, Abcam, ab155313) and anti-GAPDH (1:30000, Proteintech 60004-1-Ig) for loading control, respectively. […] Immunoblots were imaged and analyzed using the iBright FL1000 Imaging System (Thermo Fisher). […]
A general note: Immunoblotting shows a protein as a band on a membrane.

Experiment [2] relates to hiPSC chondrogenic pellets. Kind of experiment: Immunohistochemistry of collagens in pellets. The conditions noted are these: pellet culture. Type of experiment: cell-based, human. The procedure:
WNT ligands treatment during chondrogenesis. For WNT ligands treatment during chondrogenesis, pellets were treated with either 10 ng ml^−1 TGF-β3 (control group) or a combination of 10 ng ml^−1 TGF-β3 and 100 ng ml^−1 individual WNT ligand (WNT2B, WNT3A, WNT4, WNT5B, or WNT7B, all from R&D system) in chondrogenic medium from d0 to d42 as appropriate. For WNT ligands treatment during the Cp stage, cells were supplemented with either 20 ng ml^−1 BMP4 (R&D Systems, #314-BP-010) alone (control group), a combination of 20 ng ml^−1 BMP4 and 1 μM WNT-059, or a combination of 20 ng ml^−1 BMP4 and 100 ng ml^−1 WNT3A (R&D Systems, #5036-WN-010) in mesodermal differentiation medium from d7 to d12.
Immunohistochemistry. Histologic sections (8 μm thick) of the pellets were rinsed with xylenes three times and rehydrated before labeling. Antigen retrieval was performed with 0.02% proteinase K for 3 min at 37° C. for COL2A1 and COL6A1 and with pepsin for 5 min at room temperature for COL1A1 and COL10A1 followed by peroxidase quench then serum blocking for 30 min at room temperature. […]

Consider `Cc1cc(-c2ccc(CC(=O)Nc3ccc(-c4cccnc4)cc3)cc2)ccn1` [WNT-C59], for which, in experiment [1], the WNT5B protein entry is “only moderately inhibited”; the “protein levels of WNT2B, WNT3A, WNT4, and WNT7B” value is given as “decreased”. The “COL1A1 and COL10A1 staining/production” value in experiment [2] is recorded as “low”.
